Columns and labels:
[1] = system: Echinochloa oryzoides (Ard.) Fritsch.; assay: Preemergence weed control under flooded paddy conditions, ECHORC (Watergrass (Calif.)); type: in vivo; conditions: flooded paddy; for herbicidal effect rating, ECHORC: meaning of each grade not given here
Cyperus iria = assay: Preemergence weed control under flooded paddy conditions, CYPIR (Rice Flatsedge); type: in vivo; conditions: flooded paddy; for herbicidal effect rating, CYPIR: meaning of each grade not given here
[2] = system: Cyperus serotinus, Rottb.; assay: Preemergence weed control under flooded paddy conditions, CYPSE (Flatsedge); type: in vivo; for herbicidal effect rating, CYPSE: meaning of each grade not given here
[3] = system: Monochoria vaginalis, Presl.; assay: Preemergence weed control under flooded paddy conditions, MOOVA (Monochoria); type: in vivo; conditions: flooded paddy; for herbicidal effect rating, MOOVA: meaning of each grade not given here
Sagittaria pygmaea, L. = assay: Preemergence weed control under flooded paddy conditions, SAGPY (Arrowhead (Pygmaea)); type: in vivo; conditions: flooded paddy; for herbicidal effect rating, SAGPY: meaning of each grade not given here
[4] = system: Oryza sativa, (L.) Tebonnet; assay: Rice tolerance to post-transplant applications under flooded paddy conditions (Example 187), ORYSAT (Rice, Tebonnet); for herbicidal effect rating ORYSAT: meaning of each grade not given here
[5] = Rate 0.0320 kg/ha, preemergence, rated 3-4 weeks after treatment
[6] = Rate 0.0620 kg/ha, preemergence, rated 3-4 weeks after treatment
[7] = Rate 0.1250 kg/ha, preemergence, rated 3-4 weeks after treatment
[8] = Rate 0.2500 kg/ha, preemergence, rated 3-4 weeks after treatment
[9] = Rate 0.5000 kg/ha, preemergence, rated 3-4 weeks after treatment
[10] = Rate 0.0320 kg/ha, preemergence, rated three to four weeks after treatment
[11] = Rate 0.0620 kg/ha, preemergence, rated three to four weeks after treatment
[12] = Rate 0.1250 kg/ha, preemergence, rated three to four weeks after treatment
[13] = Rate 0.2500 kg/ha, preemergence, rated three to four weeks after treatment
[14] = Rate 0.0320 kg/ha, rated three to four weeks after treatment
[15] = Rate 0.0620 kg/ha, rated three to four weeks after treatment
[16] = Rate 0.1250 kg/ha, rated three to four weeks after treatment
[17] = Rate 0.2500 kg/ha, rated three to four weeks after treatment
[18] = 0.0313 kg/ha, preemergence weeds, rated three to four weeks after treatment
[19] = 0.0625 kg/ha, preemergence weeds, rated three to four weeks after treatment
[20] = 0.1250 kg/ha, preemergence weeds, rated three to four weeks after treatment
[21] = 0.2500 kg/ha, preemergence weeds, rated three to four weeks after treatment

SMILES: Cc1ccc(OCC(N)=O)c(-c2nsc3ccc(-n4c(=O)cc(C(F)(F)F)n(C)c4=O)cc23)c1 [Example 539, Acetamide, 2-{{2-{5-[3,6-dihydro-3-methyl-2,6-dioxo-4-(trifluoromethyl)-1(2H)-pyrimidinyl]-1,2-benzisothiazol-3-yl}-p-tolyl}oxy}-]
- herbicidal effect rating, ECHORC [1, 5]: 2.1
- herbicidal effect rating, ECHORC [1, 6]: 3.0
- herbicidal effect rating, ECHORC [1, 7]: 4.7
- herbicidal effect rating, ECHORC [1, 8]: 7.0
- herbicidal effect rating, ECHORC [1, 9]: 9.0
- herbicidal effect rating, CYPIR (Cyperus iria; [5]): 0.0
- herbicidal effect rating, CYPIR (Cyperus iria; [6]): 2.0
- herbicidal effect rating, CYPIR (Cyperus iria; [7]): 6.0
- herbicidal effect rating, CYPIR (Cyperus iria; [8]): 8.0
- herbicidal effect rating, CYPIR (Cyperus iria; [9]): 9.0
- herbicidal effect rating, CYPSE [2, 5]: 0.0
- herbicidal effect rating, CYPSE [2, 6]: 0.0
- herbicidal effect rating, CYPSE [2, 7]: 0.0
- herbicidal effect rating, CYPSE [2, 8]: 0.0
- herbicidal effect rating, CYPSE [2, 9]: 2.0
- herbicidal effect rating, MOOVA [3, 5]: 8.0
- herbicidal effect rating, MOOVA [3, 6]: 9.0
- herbicidal effect rating, MOOVA [3, 7]: 9.0
- herbicidal effect rating, MOOVA [3, 8]: 9.0
- herbicidal effect rating, MOOVA [3, 9]: 9.0
- herbicidal effect rating, SAGPY (Sagittaria pygmaea, L.; [5]): 0.0
- herbicidal effect rating, SAGPY (Sagittaria pygmaea, L.; [6]): 0.0
- herbicidal effect rating, SAGPY (Sagittaria pygmaea, L.; [7]): 1.0
- herbicidal effect rating, SAGPY (Sagittaria pygmaea, L.; [8]): 4.0
- herbicidal effect rating, SAGPY (Sagittaria pygmaea, L.; [9]): 9.0
- herbicidal effect rating ORYSAT ([4]; Rate 0.0320 kg/ha, rated 3-4 weeks after treatment): 0.0
- herbicidal effect rating ORYSAT ([4]; Rate 0.0620 kg/ha, rated 3-4 weeks after treatment): 1.0
- herbicidal effect rating ORYSAT ([4]; Rate 0.1250 kg/ha, rated 3-4 weeks after treatment): 1.0
- herbicidal effect rating ORYSAT ([4]; Rate 0.2500 kg/ha, rated 3-4 weeks after treatment): 1.0
- herbicidal effect rating ORYSAT ([4]; Rate 0.5000 kg/ha, rated 3-4 weeks after treatment): 5.0

SMILES: COC(=O)COc1ccc(-c2nsc3ccc(-n4c(=O)cc(C(F)(F)F)n(C)c4=O)cc23)cc1 [Example 257, Acetic acid, {p-{5-[3,6-dihydro-3-methyl-2,6-dioxo-4-(trifluoromethyl)-1(2H)-pyrimidinyl)-1,2-benzisothiazol-3-yl}phenoxy}-, methyl ester]
- ECHORC herbicidal effect rating [1, 10]: 0.0
- ECHORC herbicidal effect rating [1, 11]: 0.0
- ECHORC herbicidal effect rating [1, 12]: 0.0
- ECHORC herbicidal effect rating [1, 13]: 0.0
- CYPIR herbicidal effect rating (Cyperus iria; [10]): 0.0
- CYPIR herbicidal effect rating (Cyperus iria; [11]): 2.0
- CYPIR herbicidal effect rating (Cyperus iria; [12]): 4.0
- CYPIR herbicidal effect rating (Cyperus iria; [13]): 6.0
- CYPSE herbicidal effect rating [2, 10]: 0.0
- CYPSE herbicidal effect rating [2, 11]: 0.0
- MOOVA herbicidal effect rating [3, 10]: 8.0
- MOOVA herbicidal effect rating [3, 11]: 9.0
- MOOVA herbicidal effect rating [3, 12]: 9.0
- MOOVA herbicidal effect rating [3, 13]: 9.0
- SAGPY herbicidal effect rating (Sagittaria pygmaea, L.; [10]): 0.0
- SAGPY herbicidal effect rating (Sagittaria pygmaea, L.; [11]): 0.0
- SAGPY herbicidal effect rating (Sagittaria pygmaea, L.; [12]): 0.0
- SAGPY herbicidal effect rating (Sagittaria pygmaea, L.; [13]): 0.0
- ORYSAT herbicidal effect rating [4, 14]: 0.0
- ORYSAT herbicidal effect rating [4, 15]: 0.0
- ORYSAT herbicidal effect rating [4, 16]: 1.0
- ORYSAT herbicidal effect rating [4, 17]: 2.0

SMILES: CC(C)SCc1nsc2ccc(-n3c(=O)cc(C(F)(F)F)n(C)c3=O)cc12 [Example 202, 3-{3-[(Isopropylthio)methyl]-1,2-benzisothiazol-5-yl]-1-methyl-6-(trifluoromethyl)-2,4(1H,3H)-pyrimidinedione]
- herbicidal effect rating, ECHORC [1, 18]: 1.0
- herbicidal effect rating, ECHORC [1, 19]: 1.0
- herbicidal effect rating, ECHORC [1, 20]: 2.0
- herbicidal effect rating, ECHORC [1, 21]: 2.0
- herbicidal effect rating, CYPIR (Cyperus iria; [18]): 9.0
- herbicidal effect rating, CYPIR (Cyperus iria; [19]): 9.0
- herbicidal effect rating, CYPIR (Cyperus iria; [20]): 9.0
- herbicidal effect rating, CYPIR (Cyperus iria; [21]): 9.0
- herbicidal effect rating, CYPSE [2, 18]: 0.0
- herbicidal effect rating, CYPSE [2, 19]: 0.0
- herbicidal effect rating, CYPSE [2, 20]: 0.0
- herbicidal effect rating, CYPSE [2, 21]: 0.0
- herbicidal effect rating, MOOVA [3, 18]: 0.0
- herbicidal effect rating, MOOVA [3, 19]: 0.0
- herbicidal effect rating, MOOVA [3, 20]: 0.0
- herbicidal effect rating, MOOVA [3, 21]: 0.0
- herbicidal effect rating, SAGPY (Sagittaria pygmaea, L.; [18]): 0.0
- herbicidal effect rating, SAGPY (Sagittaria pygmaea, L.; [19]): 0.0
- herbicidal effect rating, SAGPY (Sagittaria pygmaea, L.; [20]): 0.0
- herbicidal effect rating, SAGPY (Sagittaria pygmaea, L.; [21]): 0.0
- herbicidal effect rating, ORYSAT (rice tolerance) ([4]; 0.0313 kg/ha, rated three to four weeks after treatment): 3.0
- herbicidal effect rating, ORYSAT (rice tolerance) ([4]; 0.0625 kg/ha, rated three to four weeks after treatment): 4.0
- herbicidal effect rating, ORYSAT (rice tolerance) ([4]; 0.1250 kg/ha, rated three to four weeks after treatment): 5.0
- herbicidal effect rating, ORYSAT (rice tolerance) ([4]; 0.2500 kg/ha, rated three to four weeks after treatment): 6.0

SMILES: Cn1c(C(F)(F)F)cc(=O)n(-c2ccc3snc(COC(=O)Cc4ccccc4)c3c2)c1=O [Example 369, 2,4(1H,3H)-Pyrimidinedione, 3-[3-(hydroxymethyl)-1,2-benzisothiazol-5-yl]-1-methyl-6-(trifluoromethyl)-, phenylacetate (ester)]
- herbicidal effect rating, ECHORC [1, 10]: 3.0
- herbicidal effect rating, ECHORC [1, 11]: 3.0
- herbicidal effect rating, ECHORC [1, 12]: 6.0
- herbicidal effect rating, ECHORC [1, 13]: 8.0
- herbicidal effect rating, CYPIR (Cyperus iria; [10]): 7.0
- herbicidal effect rating, CYPIR (Cyperus iria; [11]): 7.0
- herbicidal effect rating, CYPIR (Cyperus iria; [12]): 9.0
- herbicidal effect rating, CYPIR (Cyperus iria; [13]): 9.0
- herbicidal effect rating, CYPSE [2, 10]: 0.0
- herbicidal effect rating, CYPSE [2, 11]: 3.0
- herbicidal effect rating, CYPSE [2, 12]: 4.0
- herbicidal effect rating, CYPSE [2, 13]: 9.0
- herbicidal effect rating, MOOVA [3, 10]: 9.0
- herbicidal effect rating, MOOVA [3, 11]: 9.0
- herbicidal effect rating, MOOVA [3, 12]: 9.0
- herbicidal effect rating, MOOVA [3, 13]: 9.0
- herbicidal effect rating, SAGPY (Sagittaria pygmaea, L.; [10]): 0.0
- herbicidal effect rating, SAGPY (Sagittaria pygmaea, L.; [11]): 6.0
- herbicidal effect rating, SAGPY (Sagittaria pygmaea, L.; [12]): 9.0
- herbicidal effect rating, SAGPY (Sagittaria pygmaea, L.; [13]): 9.0
- herbicidal effect rating ORYSAT [4, 14]: 6.0
- herbicidal effect rating ORYSAT [4, 15]: 6.0
- herbicidal effect rating ORYSAT [4, 16]: 7.0
- herbicidal effect rating ORYSAT [4, 17]: 7.0

— patent EP0908457B1, “3-(1,2-benzisothiazol- and isoxazol-5-Y1)-2,4(1H,3H)-pyrimidinedione or thione and 3-(1,2-benzisothiazol- and isoxazol-5-y1)-4(3H)-pyrimidinone or thione herbicidal agents” (BASF AKTIENGESELLSCHAFT, priority 1997, dated 1999)
